The target in assay [1] is human Adenosine A2b receptor (Homo sapiens (Human), UniProt P29275). Briefly: Adenosine receptor TR-FRET binding assay (A2b). A digest of the protocol: (§1)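 Compounds were serially diluted 1:3 in DMSO, then incubated with CHO membranes bearing Tb-tagged human receptor plus CA200645 (A2b 30 nM; A1, A2a, A3 100 nM) for 2 h at room temperature. Time-resolved FRET was read, non-specific binding subtracted using 10 μM XAC, and Ki calculated.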

Assay [2] deals with immature monocyte-derived dendritic cells (MoDC). Briefly: MoDC pCREB assay. It is filed as cell-based, human. The following applies: pCREB in immature MoDC, 1 μM NECA, rolipram. How it is done:
Monocytes are isolated from human whole blood using CD14 microbeads (Miltenyi Biotec 130-050-201) and differentiated to immature monocyte-derived dendritic cells (MoDC) by culture for 5 days in Mo-DC Differentiation Medium (Miltenyi Biotec 130-094-812). MoDCs are seeded into fresh medium into U bottomed 96 well culture plates and pre-incubated at 37° C. with serial dilutions of A2A/B antagonists for 15 min. At the same time the cells are co-incubated with the phosphodiesterase inhibitor rolipram (final concentration of 20 µM) to amplify the subsequent pCREB response. Adenosine receptor agonist NECA is then added at 1 μM final concentration, leading to an increase in CREB phosphorylation. Following a 45 min incubation at 37° C., the cells are fixed, permeabilized and stained with directly conjugated fluorescent antibodies to phospho-CREB (Alexa Fluor 488), CD209 (PerCP-Cy5.5) and CD86 (APC). Samples are analysed by FACS to measure fluorescence in corresponding channels, and also forward and Side scatter. The population of CD209+/CD86− low cells corresponding to immature dendritic cells is gated for analysis of pCREB levels.
Approximately 5% of the analysed cells are positive for detection of pCREB in the absence of agonist stimulation, representing the background signalling of all pathways upstream of CREB. Following NECA stimulation this is increased to ˜80% pCREB+ve, and this increase is essentially fully reversible by A2B or dual A2A/B antagonists.
IC50 is represented as the point of inflection of a sigmoidal curve

The target in assay [3] is human Adenosine A2a receptor (Homo sapiens (Human), UniProt P29274). In words: Adenosine receptor TR-FRET binding assay (A2a). The following applies: inhibition of binding of 100 nM CA200645, CHO cell membranes. A digest of the protocol:
as §1
In general terms: TR-FRET usually uses a lanthanide donor and a delayed reading to cut background.

In assay [4] the test system is CD8+T cells in human whole blood. In words: Measurement of pCREB in CD8+T cells in human whole blood. Type of assay: cell-based. As to conditions: 3 μM NECA, rolipram. A digest of the protocol:
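Heparinised human whole blood pre-incubated 20 min at 37 °C with serially diluted A2a antagonists plus rolipram, then stimulated 60 min with 3 μM NECA (final). After fixation and red-cell lysis, white cells were permeabilized and stained for phospho-CREB and CD8; pCREB in CD8+ T cells measured by flow cytometry.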

For assay [5], the target named is human Adenosine A3 receptor (Homo sapiens (Human), UniProt P0DMS8). Briefly: Adenosine receptor TR-FRET binding assay (A3). As to conditions: inhibition of binding of 100 nM CA200645, CHO cell membranes. A digest of the protocol: as §1
Assay [6] has as its target human Adenosine A1 receptor (Homo sapiens (Human), UniProt P30542). Briefly: Adenosine receptor TR-FRET binding assay (A1). As to conditions: inhibition of binding of 100 nM CA200645, CHO cell membranes. A digest of the protocol:
as §1

The test system of the next assay is human PBMCs. In words: CD3/CD28 stimulated IL-2 release NECA reversal assay in human PBMCs. It is filed as cell-based. The following applies: PBMC, 1 uM NECA, 24 hours, IL-2 in culture supernatant. The gist of the method: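 PBMCs from citrated healthy-donor blood plated at 50,000 cells/well on 1 ug/ml CD3 antibody with 1 ug/ml CD28 antibody, 1 uM NECA and 0.003-10 μM antagonist (final), 24 h at 37° C. Supernatant IL-2 measured by MSD immunoassay; % inhibition set against no-NECA control wells as 100%.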

The mark [7] stands for this setting: TR-FRET, inhibition of binding of 30 nM CA200645, CHO cell membranes.

Read-outs that look alike come from different tables or passages of the source.

human Adenosine A2a receptor, sequence (P29274 whole entry): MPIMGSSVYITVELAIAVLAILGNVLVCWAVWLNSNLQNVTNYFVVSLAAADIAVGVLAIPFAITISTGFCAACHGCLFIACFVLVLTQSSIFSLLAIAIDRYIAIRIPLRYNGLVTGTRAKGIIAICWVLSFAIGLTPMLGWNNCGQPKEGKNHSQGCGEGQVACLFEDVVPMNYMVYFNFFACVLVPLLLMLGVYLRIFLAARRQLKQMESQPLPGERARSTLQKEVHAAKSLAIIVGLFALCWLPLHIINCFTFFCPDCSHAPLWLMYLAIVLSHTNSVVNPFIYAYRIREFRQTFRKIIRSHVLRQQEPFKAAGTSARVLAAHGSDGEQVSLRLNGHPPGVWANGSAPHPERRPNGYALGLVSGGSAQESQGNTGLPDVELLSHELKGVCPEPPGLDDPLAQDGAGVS
human Adenosine A3 receptor, sequence (P0DMS8 whole entry): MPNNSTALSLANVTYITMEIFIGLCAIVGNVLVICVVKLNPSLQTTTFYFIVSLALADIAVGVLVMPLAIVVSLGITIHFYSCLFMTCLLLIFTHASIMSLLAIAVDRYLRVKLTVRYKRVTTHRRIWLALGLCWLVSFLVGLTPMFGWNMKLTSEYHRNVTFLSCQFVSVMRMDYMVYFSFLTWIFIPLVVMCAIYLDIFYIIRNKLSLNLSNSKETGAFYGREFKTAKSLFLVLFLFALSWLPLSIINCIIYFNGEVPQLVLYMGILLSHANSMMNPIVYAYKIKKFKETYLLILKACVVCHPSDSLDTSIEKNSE
human Adenosine A1 receptor, sequence (P30542 whole entry): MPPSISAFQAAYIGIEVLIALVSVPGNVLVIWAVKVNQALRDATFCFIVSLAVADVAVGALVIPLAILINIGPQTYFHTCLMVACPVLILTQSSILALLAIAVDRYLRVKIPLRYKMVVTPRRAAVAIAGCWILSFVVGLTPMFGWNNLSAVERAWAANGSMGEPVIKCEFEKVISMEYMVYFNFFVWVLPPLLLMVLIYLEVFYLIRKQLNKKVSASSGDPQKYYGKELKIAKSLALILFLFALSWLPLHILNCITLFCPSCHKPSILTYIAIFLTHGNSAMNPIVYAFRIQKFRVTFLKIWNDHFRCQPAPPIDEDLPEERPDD
human Adenosine A2b receptor, sequence (P29275 whole entry): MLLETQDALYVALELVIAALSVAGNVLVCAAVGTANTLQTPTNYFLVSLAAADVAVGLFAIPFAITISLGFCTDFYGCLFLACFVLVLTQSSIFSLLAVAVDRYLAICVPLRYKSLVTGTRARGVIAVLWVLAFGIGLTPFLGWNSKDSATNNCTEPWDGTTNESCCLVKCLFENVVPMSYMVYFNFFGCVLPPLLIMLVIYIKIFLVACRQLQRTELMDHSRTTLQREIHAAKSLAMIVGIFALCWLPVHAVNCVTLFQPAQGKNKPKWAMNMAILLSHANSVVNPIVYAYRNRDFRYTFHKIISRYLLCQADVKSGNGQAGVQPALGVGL

Consider `Cc1cc(-c2sc(NC(=O)N3C[C@@H]4OCCN(C)[C@@H]4C3)nc2-c2cccc(C#N)c2)cc(C)n1` (racemic) [Example 6.98, rac-(4aR,7aS)-N-[4-(3-Cyanophenyl)-5-(2,6-dimethyl-4-pyridyl)thiazol-2-yl]-4-methyl-2,3,4a,5,7,7a-hexahydropyrrolo[3,4-b][1,4]oxazine-6-carboxamide], for which the Ki (as a rule, the dissociation constant of the complex between target and ligand, obtained from inhibition or displacement) was 7 nM in assay [1], 0.91 nM in assay [3] and 819 nM in assay [5]. Also, the IC50 (as a rule, the concentration needed to halve the response being measured) is 72 nM in assay [2] (Homo sapiens, Dendritic cell) and 50 nM in assay [4].
As to `Cc1cc(-c2sc(NC(=O)N3CC4(COC4)C3)nc2-c2cccc(C#N)c2)cc(C(C)O)n1` (racemic) [Example 12.3, N-[4-(3-Cyanophenyl)-5-[2-(1-hydroxyethyl)-6-methyl-4-pyridyl]thiazol-2-yl]-2-oxa-6-azaspiro[3.3]heptane-6-carboxamide], the Ki in assay [1] (setting [7]) stood at 5 nM; in assay [3] it was 0.44 nM; in assay [6], 27 nM; in assay [5], 1810 nM. Moreover, the IC50 in assay [2] (Homo sapiens, Dendritic cell) stood at 31 nM; in assay [4], 20 nM.
Consider `Cc1cc(-c2sc(NC(=O)N3CC4(COC4)C3)nc2-c2cccc(C#N)c2)cc([C@@H](C)O)n1` (single isomer, unassigned) [Example 12.3a, N-[4-(3-Cyanophenyl)-5-[2-[(1R)-1-hydroxyethyl]-6-methyl-4-pyridyl]thiazol-2-yl]-2-oxa-6-azaspiro[3.3]heptane-6-carboxamide or N-[4-(3-cyanophenyl)-5-[2-[(1S)-1-hydroxyethyl]-6-methyl-4-pyridyl]thiazol-2-yl]-2-oxa-6-azaspiro[3.3]heptane-6-carboxamide], for which the Ki in assay [1] (setting [7]) came to 2.6 nM; in assay [3], 0.18 nM; in assay [6] it was 23 nM; in assay [5] it was 1090 nM. Also, the IC50 in assay [2] is 16 nM; in assay [4] it was 10 nM.
With `Cc1cc(-c2sc(NC(=O)N3CCC(S(N)(=O)=O)C3)nc2-c2cccc(C#N)c2)cc(C)n1` (stereo not drawn) [Example 6.2, N-[4-(3-Cyanophenyl)-5-(2,6-dimethyl-4-pyridyl)thiazol-2-yl]-3-sulfamoyl-pyrrolidine-1-carboxamide], the Ki in assay [1] (setting [7]) came out at 0.9 nM; in assay [3], 1.28 nM; in assay [6], 24 nM; in assay [5], 166 nM. Inhibition in assay [2] (Homo sapiens, Dendritic cell) was half-maximal at 28 nM (IC50).
Take `Cc1cc(-c2sc(NC(=O)N3CC4(COC4)C3)nc2-c2cccc(C#N)c2)cc(C(F)F)n1` [Example 6.97, N-[4-(3-Cyanophenyl)-5-[2-(difluoromethyl)-6-methyl-4-pyridyl]thiazol-2-yl]-2-oxa-6-azaspiro[3.3]heptane-6-carboxamide]: the Ki in assay [1] (setting [7]) is 1.1 nM; in assay [3], 0.23 nM; in assay [6] it was 17 nM; in assay [5], 250 nM. Further, the IC50 in assay [2] (Homo sapiens, Dendritic cell) stood at 13 nM; in assay [4], 50 nM.
Turning to `Cc1cc(-c2sc(NC(=O)N3CC4(COC4)C3)nc2-c2cccc(C#N)c2)cc(Cl)n1` [Example 6.100, N-[5-(2-Chloro-6-methyl-4-pyridyl)-4-(3-cyanophenyl)thiazol-2-yl]-2-oxa-6-azaspiro[3.3]heptane-6-carboxamide], the Ki in assay [1] (setting [7]) worked out at 0.6 nM; in assay [3], 0.16 nM; in assay [6], 25 nM; in assay [5], 549 nM. The same compound had an IC50 in assay [2] (Homo sapiens, Dendritic cell) of 10 nM.
The matching figures for `[2H]C([2H])([2H])c1cc(-c2sc(NC(=O)N3CC4(COC4)C3)nc2-c2cccc(C#N)c2)cc(C([2H])([2H])[2H])n1` [Example 6.104, N-[5-[2,6-Bis(trideuteriomethyl)-4-pyridyl]-4-(3-cyanophenyl)thiazol-2-yl]-2-oxa-6-azaspiro[3.3]heptane-6-carboxamide]: 1 nM, 0.2 nM, 31 nM, 564 nM and 12 nM.
`Cc1cc(-c2sc(NC(=O)N3CC4(COC4)C3)nc2-c2cccc(C#N)c2)c(F)c(C)n1` [Example 6.105, N-[4-(3-Cyanophenyl)-5-(3-fluoro-2,6-dimethyl-4-pyridyl)thiazol-2-yl]-2-oxa-6-azaspiro[3.3]heptane-6-carboxamide]: the Ki in assay [1] (setting [7]) turned out to be 1.3 nM; in assay [3], 1.27 nM; in assay [6] it was 71 nM; in assay [5], 368 nM. The same compound had a 50% inhibitory concentration (IC50) in assay [2] (Homo sapiens, Dendritic cell) of 4 nM.
Consider `Cc1cc(-c2sc(NC(=O)N3CCC4(CNCCO4)C3)nc2-c2cccc(C#N)c2)cc(C(F)F)n1` (stereo not drawn) [Example 6.108, N-[4-(3-Cyanophenyl)-5-[2-(difluoromethyl)-6-methyl-4-pyridyl]thiazol-2-yl]-6-oxa-2,9-diazaspiro[4.5]decane-2-carboxamide], for which the Ki amounted to 0.9 nM in assay [1] (setting [7]), 0.59 nM in assay [3], 34 nM in assay [6] and 145 nM in assay [5]. The IC50 in assay [2] (Homo sapiens, Dendritic cell) came out at 62 nM.
For `Cc1cc(-c2sc(NC(=O)N3CCS(=O)(=NC#N)CC3)nc2-c2cccc(C#N)c2)cc(C)n1` [Example 11, 1-Cyanoimino-N-[4-(3-cyanophenyl)-5-(2,6-dimethyl-4-pyridyl)thiazol-2-yl]-1-oxo-1,4-thiazinane-4-carboxamide], the Ki in assay [1] (setting [7]) stood at 1.3 nM; in assay [3], 0.62 nM; in assay [6] it was 51 nM; in assay [5], 515 nM. Further, the IC50 with human PBMCs came out at 10.5 nM; in assay [4], 1130 nM.
On to `Cc1cc(-c2sc(NC(=O)N3CCC(C)(C#N)CC3)nc2-c2cccc(C#N)c2)cc(C(C)(C)O)n1` [Example 12, 4-Cyano-N-[4-(3-cyanophenyl)-5-[2-(1-hydroxy-1-methyl-ethyl)-6-methyl-4-pyridyl]thiazol-2-yl]-4-methyl-piperidine-1-carboxamide], for which the inhibitory constant (Ki) came to 3.1 nM in assay [1] (setting [7]), 0.16 nM in assay [3], 6 nM in assay [6] and 930 nM in assay [5]. The compound further yielded an IC50 in assay [2] (Homo sapiens, Dendritic cell) of 73 nM.
For the compound `Cc1cc(-c2sc(NC(=O)N3CCC4(CNCCO4)C3)nc2-c2cccc(C#N)c2)cc(C)n1` (stereo not drawn) [Example 13.12, N-[4-(3-Cyanophenyl)-5-(2,6-dimethyl-4-pyridyl)thiazol-2-yl]-6-oxa-2,9-diazaspiro[4.5]decane-2-carboxamide], the Ki in assay [1] (setting [7]) is 4.6 nM; in assay [3] it was 0.84 nM; in assay [6], 41 nM; in assay [5], 426 nM. The IC50 came to 73 nM in assay [2] (Homo sapiens, Dendritic cell) and 70 nM in assay [4].
Turning to `Cc1cc(-c2sc(NC(=O)N3CCS(=N)(=O)CC3)nc2-c2cccc(C#N)c2)cc(C(F)F)n1` [Example 16.1], the Ki in assay [1] (setting [7]) is 2.2 nM; in assay [3], 0.29 nM; in assay [6], 22 nM; in assay [5], 257 nM. The IC50 with human PBMCs worked out at 6.7 nM; in assay [4], 120 nM.
Take `Cc1cc(-c2sc(NC(=O)N3CC4(COC4)C3)nc2-c2cccc(C#N)c2)cc(C2COC2)n1` [Example 16.4]: the Ki in assay [1] (setting [7]) came out at 3.3 nM; in assay [3] it was 0.13 nM; in assay [6], 12 nM; in assay [5] it was 1710 nM. For the same compound, the IC50 in assay [2] (Homo sapiens, Dendritic cell) stood at 36 nM.
Consider `CCc1cc(-c2sc(NC(=O)N3CC4(COC4)C3)nc2-c2cccc(C#N)c2)cc(C)n1` [Example 16.9], for which the Ki in assay [1] (setting [7]) came out at 0.8 nM; in assay [3], 0.1 nM; in assay [6] it was 9 nM; in assay [5] it was 350 nM. The compound further gave an IC50 in assay [2] (Homo sapiens, Dendritic cell) of 18 nM.
Turning to `Cc1cc(-c2sc(NC(=O)N3CCC(C)(C#N)CC3)nc2-c2cccc(C#N)c2C)cc(C)n1` [Example 18, 4-Cyano-N-[4-(3-cyano-2-methyl-phenyl)-5-(2,6-dimethyl-4-pyridyl)thiazol-2-yl]-4-methyl-piperidine-1-carboxamide], the Ki is 3.4 nM in assay [1] (setting [7]), 0.39 nM in assay [3], 248 nM in assay [6] and 852 nM in assay [5]. In addition, the IC50 is 7.2 nM in the assay with human PBMCs and 410 nM in assay [4].

The record behind these values is US20230293517A1, “ANTAGONIST COMPOUNDS” (AdoRx Therapeutics Limited, priority 2020, published 2023).
